Laboratory results from PMC12903969, “Discovery of a Novel and Potent Kir4.1 Inhibitor as a Safe and Rapid‐Onset Antidepressant Agent in Mice” (Advanced Science, 2025).
Values joined by “and” are separate entries in the source; they are usually repeats but may differ in a detail not shown here. Identical values can stand only once.

Experiments:
[1] = tested on: mice; assay: Acute forced swim test (FST); format: in vivo; details: 30 and 60 mg kg−1
Description: Mice were placed individually in a transparent glass cylinder (25 cm high, 10 cm wide) filled with water (temperature 23–25 °C) to a depth of 10 cm, and prevented from making contact with the bottom. Mice behaviors were videotaped from each side. The observation period lasted for 6 min, with the final 4 min used to measure immobile behavior, which was processed using the AnyMaze Tracking System (Stoelting).

[2] = tested on: mice; assay: Y-maze; format: in vivo; details: chronic 10 mg kg−1 per day
Description: This test was designed to evaluate spatial working memory. Briefly, mice were individually placed in a symmetrical Y‐maze and allowed to explore for 8 min. Entries were counted only when both hind paws crossed the arm threshold. Correct spatial alternation was defined as an entry into all three arms in an uninterrupted sequence (e.g., ABC, BCA or CAB each representing one alternation). The alternation percentage was derived as: [correct alternations/(total entries–2)] × 100%. After each session, the walls and floor of the maze were wiped with 75% ethanol and allowed to dry before the next animal was tested.

[3] = target: T1, Kir4.1 T162A (Homo sapiens, UniProt P78508, T162A); assay: Whole-cell patch clamp, Kir4.1 point mutant T162A; format: cell-based; details: JX3212 3 µM (Fig 2D)
T1 construct: expressed in transfected cells; host or cells: CHO-K1
T1 sequence (P78508 whole entry T162A): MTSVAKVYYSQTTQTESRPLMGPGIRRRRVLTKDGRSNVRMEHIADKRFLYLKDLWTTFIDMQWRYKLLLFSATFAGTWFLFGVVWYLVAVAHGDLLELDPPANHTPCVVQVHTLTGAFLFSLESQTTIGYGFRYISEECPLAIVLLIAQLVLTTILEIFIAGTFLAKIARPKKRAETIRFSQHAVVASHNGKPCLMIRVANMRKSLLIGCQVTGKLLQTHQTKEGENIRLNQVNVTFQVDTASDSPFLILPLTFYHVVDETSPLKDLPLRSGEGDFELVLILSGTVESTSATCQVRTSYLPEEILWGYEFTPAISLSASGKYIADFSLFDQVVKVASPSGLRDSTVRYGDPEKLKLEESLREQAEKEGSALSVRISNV
Description: Plasmids encoding WT human potassium channels Kir1.1, Kir2.1, Kir2.2, Kir4.1, and Kir4.2 were obtained from the Beijing Genomics Institute. All point mutations were constructed using the QuickChange II Site‐Directed Mutagenesis Kit (Stratagene) and subsequently verified by sequencing.
CHO‐K1 cells were maintained in DMEM/F12 growth medium containing 10% fetal bovine serum. Plasmids encoding the target genes (3600 ng) and enhanced green fluorescent protein (400 ng) were cotransfected into cells using Lipofectamine 2000 (Invitrogen) in accordance with the manufacturer's instructions. Cells were seeded onto poly‐d‐lysine (PDL)‐coated glass coverslips 1 h prior to electrophysiological recordings. […]
Whole‐cell patch‐clamp recordings were obtained either in transiently transfected CHO‐K1 cells or in primary cultured astrocytes at room temperature using standard patch‐clamp techniques with an Axopatch‐700B amplifier (Axon Instruments). […] Macroscopic currents generated by expressed potassium channels were recorded under the voltage‐clamp conditions with an internal pipette solution composed of (in mM): 140 KCl, 5 NaCl, 1 CaCl2, 1 MgCl2, 10 HEPES, and 10 EGTA, pH 7.2 adjusted with KOH. […] Astrocytic resting membrane potentials were recorded under current‐clamp conditions (I = 0 pA) using standard internal and external solutions, determined immediately after achieving whole‐cell mode.

[4] = tested on: mice; assay: Repeat-dose (14-day subacute) toxicity study
Description: The mice received daily treatments for 14 consecutive days and were monitored once daily for signs of toxicity. Individual body weights were measured daily throughout the observation period. At the end of this period, all mice were sacrificed and dissected. Macroscopic evaluation was performed, and the heart, liver, spleen, lungs, kidneys, and brain were excised for relative weight calculations. Representative organ fragments were embedded in formalin and paraffin, then fixed for subsequent histopathological analysis. Serum biochemical analyses included determination of creatinine, urea, alanine aminotransferase, and aspartate aminotransferase.

[5] = target: T2, 5-HT2B receptor (Homo sapiens, UniProt P41595); assay: 5-HT2B functional assay (Fluo-4 calcium, FDSS); format: cell-based
T2 construct: expressed in transfected cells
T2 sequence (P41595 whole entry): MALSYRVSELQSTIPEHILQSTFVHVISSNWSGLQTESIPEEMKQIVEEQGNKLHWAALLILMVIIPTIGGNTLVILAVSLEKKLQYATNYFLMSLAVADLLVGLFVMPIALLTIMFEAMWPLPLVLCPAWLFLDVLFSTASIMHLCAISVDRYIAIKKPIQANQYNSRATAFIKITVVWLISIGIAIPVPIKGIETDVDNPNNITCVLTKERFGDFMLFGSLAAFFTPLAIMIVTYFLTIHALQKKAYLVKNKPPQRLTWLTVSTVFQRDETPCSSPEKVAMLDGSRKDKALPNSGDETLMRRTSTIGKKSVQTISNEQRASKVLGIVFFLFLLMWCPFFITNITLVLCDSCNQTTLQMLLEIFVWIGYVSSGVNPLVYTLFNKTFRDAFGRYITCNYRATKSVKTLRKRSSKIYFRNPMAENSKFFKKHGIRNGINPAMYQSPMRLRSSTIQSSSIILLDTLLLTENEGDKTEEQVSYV
Description: Cells with inducible expression of target receptor were cultured in 175‐cm^2 flasks until ≈80% confluence, washed once with phosphate‐buffered saline (PBS), and dissociated using 0.25% trypsin–EDTA. After neutralization with culture medium and centrifugation (800 rpm, 3 min), the cells were resuspended, counted, and seeded onto poly‐D‐lysine‐coated 96‐well black plates at a density of 4 × 10^4 cells/well. Expression of the target receptor was induced with 1 µg mL^−1 doxycycline. After 30 min at room temperature, the plates were incubated at 37 °C, 5% CO2 for 18−24 h until reaching ≈90% confluence. The medium was replaced with Ca^2⁺‐free extracellular buffer, washed once, and incubated with Fluo‐4 AM for 60 min at 37 °C in the dark. After washing twice with extracellular buffer, extracellular buffer was added (80 µL/well), and the cells were incubated for an additional 20 min at room temperature before fluorescence recording. Real‐time fluorescence changes were recorded using an FDSS/µCell system at 480 nm excitation and 540 nm emission with a sampling rate of 1 Hz. After a 10‐s baseline, the test compounds were added (20 µL/well), and fluorescence was recorded for 180 s. Subsequently, […] was added (20 µL/well), and the signals were monitored for a total of 360 s.
The agonistic effect (%) of compounds was calculated as follows: (1) Agonist%=Rcompound−Rcontrol/Rcontrol×100% where R control is the maximal fluorescence ratio after the addition of 0.5% DMSO and R compoundis the ratio obtained after compound treatment. Fluorescence response curves and EC50 values were used to evaluate the agonistic potency. The extracellular (Ca^2+‐free) buffer contained (in mM): 140 NaCl, 5 KCl, 1 MgCl2, 10 glucose, 10 HEPES, 2 probenecid; pH adjusted to 7.4 with NaOH.

[6] = 100 mg/kg, 14-day, individual animals
[7] = organ weight index, 100 mpk, 14-day, individual animals, 100 mg/kg

c1ccc2c(c1)oc1ccc(Nc3ccnc(NCCCN4CCOCC4)n3)cc12 [JX3212, N^4-(dibenzo[b,d]furan-2-yl)-N^2-(3-morpholinopropyl)pyrimidine-2,4-diamine]
immobility time in acute FST (in words) [1]: significantly reducing immobility time
Y-maze alternation percentage vs vehicle (in words) [2]: showed no effects
Mutation: T162A inhibition, single recordings [3]: 80.9735 and 73.6489 and 64.6435 and 83.1492 and 87.0339
histomorphology of liver, spleen, kidneys, HE staining (in words) ([4]; 100 mg kg−1 i.p., 14 days): no pronounced pathological changes
serum creatine level (in words) ([4]; 100 mg kg−1 i.p., 14 days): slight decrease in creatine levels
mortality, body weight, organ-to-body weight ratio (in words) ([4]; 100 mg kg−1 i.p., 14 days, n = 6): No mortality or significant changes in body weight
ALT [4, 6]: 24 and 28 and 22 and 33 and 30 and 36
AST [4, 6]: 77 and 98 and 90 and 81
Cr [4, 6]: 23 and 24 and 31 and 22
Body weight ([4]; 100 mpk, day 1, individual animals): 24.7 and 25 (2×) and 25.5
Body weight ([4]; 100 mpk, day 2, individual animals): 24.3 and 25 and 24.7 and 23.4 (2×) and 24.2
Body weight ([4]; 100 mpk, day 3, individual animals): 25 (2×) and 23.6 and 23.7 and 24.2 and 23.8
Body weight ([4]; 100 mpk, day 4, individual animals): 23.4 and 25 and 24.7 and 25.4 and 24 (2×)
Body weight ([4]; 100 mpk, day 5, individual animals): 25 and 23.3 and 24.7 (2×) and 25.4
Body weight ([4]; 100 mpk, day 6, individual animals, in g (unit assumed)): 24.7 and 23.4 and 25 and 25.8 and 24.4
Body weight ([4]; 100 mpk, day 7, individual animals, in g (unit assumed)): 25.1 and 23.1 and 25.2 and 25.3 and 23.9 and 24.5
Body weight ([4]; 100 mpk, day 8, individual animals): 24.6 (2×) and 23.2 and 24 and 24.9 and 22.8
Body weight ([4]; 100 mpk, day 9, individual animals): 23.2 and 23 and 24.8 (2×) and 23.5 and 25
Body weight ([4]; 100 mpk, day 10, individual animals, in g (unit assumed)): 23.6 and 22.9 and 24.4 and 24.1
Body weight ([4]; 100 mpk, day 11, individual animals, in g (unit assumed)): 24.4 and 23.3 and 23.8
Body weight ([4]; 100 mpk, day 12, individual animals, in g (unit assumed)): 24.4 and 23.7 and 24.2 and 23.3
Body weight ([4]; 100 mpk, day 13, individual animals): 24.3 and 24.1 (2×) and 23.6 and 25.7 and 23.4
Body weight ([4]; 100 mpk, day 14, individual animals, in g (unit assumed)): 24.1 and 23.8 and 26.2 and 24.4 and 22.9 and 24
Brain [4, 7]: 1.903 and 1.921 and 1.682 and 2.001 and 1.79 and 1.878
Heart [4, 7]: 0.4606 and 0.4848 and 0.4887 and 0.4129 and 0.4371 and 0.4527
Kidney [4, 7]: 1.532 and 1.538 and 1.4509 and 1.426 and 1.403 and 1.554
Liver [4, 7]: 6.39 and 5.873 and 5.169 and 5.3375 and 6.082 and 6.251
Lung [4, 7]: 0.6629 and 0.6646 and 0.5455 and 0.5464 and 0.7241 and 0.5883
Spleen [4, 7]: 0.4787 and 0.4556 and 0.409 and 0.4522 and 0.473 and 0.3725
EC50 ([5]; agonistic effect): > 60 µM
activation at 60 µM ([5]; read-out: 5-HT2B agonistic effect, replicates, concentration 60 (presumably µM)): 55.2%
Emax ([5]; read-out: 5-HT2B max activation%): 62.4%
